Data published in patent US20210317099A1, “SAFER, POTENT, AND FAST ACTING ANTIMICROBIAL AGENTS” (Purdue Research Foundation, priority 2020, published 2021).
≈ marks a conversion by molar mass, not a printed value. Like-named read-outs stand apart in the source and are kept apart here.

Legend:
Type in all cases: cell-based
[1] = test system: Staphylococcus aureus NRS384 (MRSA USA300); test: Initial MIC screening, broth microdilution (CLSI); details: Staphylococcus aureus NRS384 (MRSA USA300), broth microdilution, visual reading
In short: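 MRSA USA300 grown 24 h at 37 °C on tryptic soy agar, then adjusted to 5×10^5 CFU/ml in cation-adjusted Mueller-Hinton broth. Compounds serially diluted 64 to 0.5 μg/mL per CLSI broth microdilution; MIC recorded.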

[2] = test system: human keratinocytes cell line (HaCaT cells); test: In vitro cytotoxicity, MTS assay; details: 2 h
Procedure: Compounds 144, 148, 149, 151, 155, and 158 were assayed (at concentrations of 16, 32, and 64 μg/mL) against a human keratinocytes cell line (HaCaT cells) to determine their in vitro potential toxic effect. Briefly, cells were cultured in Dulbecco's Modified Eagle Medium (DMEM) supplemented with 10% fetal bovine serum (FBS) and penicillin-streptomycin at 37° C. in presence of 5% CO2. Compounds were added in the first row of the 96-well plate. Control cells received DMSO alone at a concentration equivalent to that in drug-treated wells. The cells were incubated with the compounds (in triplicate) in a 96-well plate at 37° C. in presence of 5% CO2 for two hours. The assay reagent MTS 3-(4,5-dimethylthiazol-2-yl)-5-(3-carboxymethoxyphenyl)-2-(4-sulfophenyl)-2H-tetrazolium) (Promega, Madison, Wis., USA) was subsequently added and the plate was incubated for three to four hours. Absorbance readings (at OD490) were recorded using a kinetic microplate reader (Molecular Devices, Sunnyvale, Calif., USA). The quantity of viable cells after treatment with each compound was expressed as a percentage of the viability to DMSO-treated control cells (average of triplicate wells±standard deviation).
FIG. 2. Analyzing the toxicity of compounds 144, 148, 149, 151, 155 and 158 (tested in triplicates at 16, 32 and 64 μg/mL) against human keratinocytes cells (HaCaT) using the MTS 3-(4,5-dimethylthiazol-2-yl)-5-(3-carboxymethoxyphenyl)-2-(4-sulfophenyl)-2H-tetrazolium) assay. Results are presented as percent viable cells relative to DMSO (negative control to determine a baseline measurement for the cytotoxic impact of each compound). The absorbance values represent an average of three samples analyzed for each compound. Error bars represent standard deviation values. The data were analyzed via a two-way ANOVA with post-hoc Dunnett's test for multiple comparisons. An asterisk (*) denotes statistical significance (P<0.05) between results for compounds and DMSO.

MRSA NRS 385 = test: MIC, Gram-positive panel; details: Staphylococcus aureus; MRSA NRS 385; read-out: MIC
Procedure: (§1) Next, the spectrum of antibacterial activity of compounds 144, 148, 149, 151, 155, 158, and 187 was examined against a panel of clinically relevant Gram-positive bacterial pathogens including methicillin-resistant Staphylococcus aureus (MRSA), vancomycin-resistant Staphylococcus aureus (VRSA), vancomycin-resistant Enterococcus faecalis and Enterococcus faecium (VRE), and Streptococcus pneumoniae. Bacterial strains were grown aerobically overnight on tryptone soya agar plates at 37° C. Afterwards, a bacterial solution equivalent to 0.5 McFarland standard was prepared and diluted in cation-adjusted Mueller-Hinton broth (CAMHB) (for staphylococci). Enterococci and Streptococci were diluted in tryptone soya broth (TSB) to achieve a bacterial concentration of about 5×10^5 CFU/mL and seeded in 96-well plates. Compounds and control drugs were added in the first row of 96-well plates and serially diluted with media containing bacteria. Plates were then, incubated aerobically at 37° C. for 18-20 hours (except for S. pneumoniae, which was incubated at 37° C. in presence of 5% CO2 for 18-20 hours).

VRSA 12 = test: MIC, Gram-positive panel; details: Staphylococcus aureus; VRSA 12; read-out: MIC
Procedure: as §1

MRSA NRS 123 = test: MIC, Gram-positive panel; details: Staphylococcus aureus; MRSA NRS 123; read-out: MIC
Procedure: as §1

MRSA NRS 119 = test: MIC, Gram-positive panel; details: Staphylococcus aureus; MRSA NRS 119; read-out: MIC
Procedure: as §1

VRSA 10 = test: MIC, Gram-positive panel; details: Staphylococcus aureus; VRSA 10; read-out: MIC
Procedure: as §1

[3] = test system: Enterococcus faecalis ATCC 51299 (VRE); test: MIC, Gram-positive panel; details: Enterococcus faecalis ATCC 51299 (VRE); read-out: MIC
Procedure: as §1

S. aureus NRS 107 = test: MIC, Gram-positive panel; details: Staphylococcus aureus, NRS107; S. aureus NRS 107; read-out: MIC
Procedure: as §1

[4] = test system: Enterococcus faecium ATCC 700221 (VRE); test: MIC, Gram-positive panel; details: Enterococcus faecium ATCC 700221 (VRE); read-out: MIC
Procedure: as §1

[5] = test system: Methicillin-resistant S. pneumoniae ATCC 700677; test: MIC, Gram-positive panel; details: Streptococcus pneumoniae, ATCC700677; Methicillin-resistant S. pneumoniae ATCC 700677; read-out: MIC
Procedure: as §1

[6] = test system: Methicillin-resistant S. epidermidis NRS101; test: MIC, Gram-positive panel; details: Staphylococcus epidermidis; Methicillin-resistant S. epidermidis NRS101; read-out: MIC
Procedure: as §1

S. pneumoniae ATCC 51916 = test: MIC, Gram-positive panel; details: Streptococcus pneumoniae, ATCC51916; S. pneumoniae ATCC 51916; read-out: MIC
Procedure: as §1

MRSA NRS 386 = test: MIC, Gram-positive panel; details: Staphylococcus aureus; MRSA NRS 386; read-out: MIC
Procedure: as §1

S. aureus ATCC 6538 = test: MIC, Gram-positive panel; details: Staphylococcus aureus, ATCC6538; S. aureus ATCC 6538; read-out: MIC
Procedure: as §1

C=C1C(=O)O[C@H](C2=CC=CCC2)[C@H]1c1cccc2ccccc12 [Compound 187]
MIC [1]: 1 µg/mL (≈ 3.31 µM)
MIC ([1]; Staphylococcus aureus, read-out: MIC): 1 to 2 µg/mL (≈ 3.31 to 6.61 µM)
tolerable concentration as multiple of MIC against MRSA [2]: 16 to 32 times
MIC (MRSA NRS 385): 1 µg/mL (≈ 3.31 µM)
MIC (VRSA 12): 2 µg/mL (≈ 6.61 µM)
MIC (MRSA NRS 123): 2 µg/mL (≈ 6.61 µM)
MIC (MRSA NRS 119): 2 µg/mL (≈ 6.61 µM)
MIC (VRSA 10): 1 µg/mL (≈ 3.31 µM)
MIC [3]: > 64 µg/mL
MIC (S. aureus NRS 107): 1 µg/mL (≈ 3.31 µM)
MIC [4]: > 64 µg/mL
MIC [5]: 1 µg/mL (≈ 3.31 µM)
MIC [6]: 0.5 µg/mL (≈ 1.65 µM)
MIC (S. pneumoniae ATCC 51916): 1 µg/mL (≈ 3.31 µM)
MIC (MRSA NRS 386): 1 µg/mL (≈ 3.31 µM)
MIC (S. aureus ATCC 6538): 1 µg/mL (≈ 3.31 µM)
